Assays:
[1] = Toxic effects in rats; format: in vivo; settings: 0.32 mg/300 gm
Text: (§1) Relative to a 70 kg person, this represents a safety factor of 74.7 and 112 respectively.

[2] = Toxic effects in mice; format: in vivo; settings: 0.032 mg/20 gm
Text: as §1

For `O=P(O)(O)C(O)(c1ccccc1)P(=O)(O)O` [.PHI.PA], the toxic effects observed [1] was “No toxic effects”, the safety factor ([1]; rat, in vivo, read-out: safety factor relative to a 70 kg person) was 74.7 and the toxic effects observed [2] was “No toxic effects”. The safety factor ([2]; mouse, in vivo, read-out: safety factor relative to a 70 kg person) was 112.
